Entries after “also recorded” stand apart in the source; their conditions may differ.
Experiments:
cell membranes = assay: Effect of EGTA in extracellular assay solution on baseline voltage dye fluorescence; assay type: cell-based; conditions: CNG channel without pore mutation
VIP2R = biological target: T1, VIP2R (Homo sapiens, UniProt P41587); assay: CNG channel voltage dye assay with quencher dyes, cell line ASC0145 (VIP2R); assay type: cell-based; conditions: ASC0145, compared with MDC dye kit R-8034, FIG. 23
T1 construct: expressed in transfected cells; host or cells: cell line ASC0145 (CNG sensor line)
T1 sequence (P41587 24-438): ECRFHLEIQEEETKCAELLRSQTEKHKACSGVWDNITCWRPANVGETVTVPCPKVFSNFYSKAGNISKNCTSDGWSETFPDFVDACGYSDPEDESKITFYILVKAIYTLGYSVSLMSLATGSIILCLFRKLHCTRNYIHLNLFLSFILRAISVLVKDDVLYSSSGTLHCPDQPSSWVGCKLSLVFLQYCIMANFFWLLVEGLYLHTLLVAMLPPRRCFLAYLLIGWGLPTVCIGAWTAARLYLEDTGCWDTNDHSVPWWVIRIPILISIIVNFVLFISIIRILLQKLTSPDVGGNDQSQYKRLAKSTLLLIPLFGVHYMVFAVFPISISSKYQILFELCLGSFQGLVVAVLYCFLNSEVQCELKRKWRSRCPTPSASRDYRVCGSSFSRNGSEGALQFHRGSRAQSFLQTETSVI

GIPR = biological target: T2, GIPR (Homo sapiens, UniProt P48546); assay: CNG channel voltage dye assay with quencher dyes, cell line ASC0133 (GIPR); assay type: cell-based; conditions: ASC0133, compared with MDC dye kit R-8034, FIG. 24
T2 construct: expressed in transfected cells; host or cells: cell line ASC0133 (CNG sensor line)
T2 sequence (P48546 22-466): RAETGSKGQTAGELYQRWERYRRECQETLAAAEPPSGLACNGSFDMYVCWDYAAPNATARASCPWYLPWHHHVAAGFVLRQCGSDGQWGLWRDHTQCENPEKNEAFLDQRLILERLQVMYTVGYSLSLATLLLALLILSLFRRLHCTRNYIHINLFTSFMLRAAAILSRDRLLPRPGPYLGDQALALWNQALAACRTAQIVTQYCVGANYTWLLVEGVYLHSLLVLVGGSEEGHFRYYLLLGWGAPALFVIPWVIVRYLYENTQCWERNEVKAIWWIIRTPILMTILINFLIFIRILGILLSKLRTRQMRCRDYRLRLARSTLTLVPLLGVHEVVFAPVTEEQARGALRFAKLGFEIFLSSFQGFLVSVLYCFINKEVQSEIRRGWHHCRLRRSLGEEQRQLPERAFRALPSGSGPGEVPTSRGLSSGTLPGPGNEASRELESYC

[1] = Solubility in water of dye quenchers
20 ligand-receptor pairs = conditions: quenchers for fluorescent voltage dyes
GCGR = biological target: T3, GCGR (Homo sapiens, UniProt P47871); assay: CNG channel voltage dye assay with quencher dyes, cell line ASC0089 (GCGR); assay type: cell-based; conditions: compared with other quenchers and MDC dye kit, FIG. 21, 22
T3 construct: expressed in transfected cells
T3 sequence (P47871 26-477, species assumed): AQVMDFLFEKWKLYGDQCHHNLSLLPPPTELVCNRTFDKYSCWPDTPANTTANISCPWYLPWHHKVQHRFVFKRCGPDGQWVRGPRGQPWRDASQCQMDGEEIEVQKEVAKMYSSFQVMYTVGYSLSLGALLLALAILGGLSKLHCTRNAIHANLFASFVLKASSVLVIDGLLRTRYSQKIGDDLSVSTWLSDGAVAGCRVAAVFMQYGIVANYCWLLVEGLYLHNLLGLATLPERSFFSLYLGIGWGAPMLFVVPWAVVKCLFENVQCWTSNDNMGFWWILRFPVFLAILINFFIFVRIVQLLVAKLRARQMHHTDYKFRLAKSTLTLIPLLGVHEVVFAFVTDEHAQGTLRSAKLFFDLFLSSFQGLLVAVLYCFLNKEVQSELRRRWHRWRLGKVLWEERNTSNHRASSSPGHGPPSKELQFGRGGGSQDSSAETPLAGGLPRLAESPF

[2] = biological target: Gi-coupled D2 dopamine receptor (Homo sapiens, UniProt P14416); conditions: 300 nM, FIG. 29
Gi-coupled D2 dopamine receptor, sequence (P14416 whole entry): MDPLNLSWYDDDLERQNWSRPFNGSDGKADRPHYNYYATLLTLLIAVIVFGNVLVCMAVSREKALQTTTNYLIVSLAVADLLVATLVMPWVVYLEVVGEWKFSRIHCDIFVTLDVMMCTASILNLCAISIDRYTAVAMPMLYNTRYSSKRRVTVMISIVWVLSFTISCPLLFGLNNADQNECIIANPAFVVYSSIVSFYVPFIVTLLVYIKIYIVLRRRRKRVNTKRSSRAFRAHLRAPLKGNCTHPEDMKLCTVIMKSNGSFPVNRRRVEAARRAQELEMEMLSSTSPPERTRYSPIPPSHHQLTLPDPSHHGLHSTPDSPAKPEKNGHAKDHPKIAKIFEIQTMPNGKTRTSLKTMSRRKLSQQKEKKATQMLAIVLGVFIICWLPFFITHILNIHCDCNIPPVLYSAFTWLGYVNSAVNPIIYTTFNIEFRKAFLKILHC

DRD2 receptor = DRD2 receptor (Homo sapiens, UniProt P14416)
DRD2 receptor, sequence (P14416 whole entry): as above
Text: This kind of assay is figuratively dubbed as “upside down assay”, as the activation of receptor brings down the fluorescence signal from a highly activated level.

With `O=C(O)CN(CCOCCOCCN(CC(=O)O)CC(=O)O)CC(=O)O` [EGTA] the “fluorescence increase over baseline” value (cell membranes) was “about 40%”.

With Nitrazine Yellow the “Effect of quencher on VIP potency” value (VIP2R) was “left-shifted by about one order of magnitude; also recorded: increased using nitrazine yellow as a quencher by more than one order”, the “Effect of quencher on GIP potency” value (GIPR) was “left-shifted by about one order of magnitude; also recorded: increased using nitrazine yellow as a quencher by one order” and the “Solubility in Water” value [1] was 20 mg/mL. The “effect of quencher on responses of peptides and other small organic molecules” value (20 ligand-receptor pairs) was “little effect” and the “Effect of quencher on glucagon potency” value (GCGR) was “Glucagon potency increased”.

With `NCCc1ccc(O)c(O)c1` [dopamine] the calcium response [2] was “does not affect calcium levels”, the “time to maximal response” value (DRD2 receptor; 1 μM dopamine, 96-well, FLEXstation) was “about 400 seconds” and the “time for forskolin-induced fluorescence signal to nearly return to the pre-forskolin level” value (DRD2 receptor; no PDE inhibitor, FIG. 28A) was no more than 7 min.

Source: US7238213B2, “Cell-based assays employing voltage and calcium dyes” (priority 2001, dated 2007)
